Experimental data reported in US12410171B2, “Tropomyosin receptor kinase (TRK) degradation compounds and methods of use” (Cullgen (Shanghai), Inc., priority 2020, dated 2025).
Read-outs that look alike come from different tables or passages of the source.

How the values were obtained:
TPM3-TRKA fusion protein = molecular target: T1, TPM3-TRKA fusion protein (Homo sapiens, UniProt P04629); assay: TPM3-TRKA fusion protein levels in KM12 cells (Western blot); type: cell-based; settings: read-out: Degradation (at 10 nM)
T1 construct: The resulted chimeric proteins always retain the kinase domain of TRK proteins; TPM3 (fusion partner, N-terminal part of tropomyosin alpha-3, P06753); endogenous in cells; host or cells: KM12 colon cancer cells; the other entry of the earlier key: TPM3 (P06753, Tropomyosin alpha-3 chain)
In short: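 KM12 colon cancer cells were treated with DMSO or compounds at 0.1–100 nM, 0.4–30 nM or other stated concentrations for 4, 8–16 or 16 h. RIPA lysates were BCA-normalized and resolved by SDS-PAGE. TPM3-TRKA was detected by chemiluminescent Western blot, with bands quantified by densitometry.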

KM12 cells = assay: KM12 cell viability (CellTiter-Glo); type: cell-based; settings: Homo sapiens
In short: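 KM12 cells seeded at 5000 per well in RPMI 1640 + 10% FBS and exposed 3 days to serial dilutions (11-point 3-fold, 8-point 3-fold from 1000 nM, or 12-point 2-fold). Viability by CellTiter-Glo; IC50 from least-squares nonlinear regression.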

[1] = 16 h, TPM3-TRKA degradation in KM12 cells at 10 nM
[2] = 72 h, KM12 cell viability, 11-point 3-fold serial dilution, 3 days, CellTiter-Glo, read-out: IC50

T1 sequence (P04629 with tags, fused parts or gaps): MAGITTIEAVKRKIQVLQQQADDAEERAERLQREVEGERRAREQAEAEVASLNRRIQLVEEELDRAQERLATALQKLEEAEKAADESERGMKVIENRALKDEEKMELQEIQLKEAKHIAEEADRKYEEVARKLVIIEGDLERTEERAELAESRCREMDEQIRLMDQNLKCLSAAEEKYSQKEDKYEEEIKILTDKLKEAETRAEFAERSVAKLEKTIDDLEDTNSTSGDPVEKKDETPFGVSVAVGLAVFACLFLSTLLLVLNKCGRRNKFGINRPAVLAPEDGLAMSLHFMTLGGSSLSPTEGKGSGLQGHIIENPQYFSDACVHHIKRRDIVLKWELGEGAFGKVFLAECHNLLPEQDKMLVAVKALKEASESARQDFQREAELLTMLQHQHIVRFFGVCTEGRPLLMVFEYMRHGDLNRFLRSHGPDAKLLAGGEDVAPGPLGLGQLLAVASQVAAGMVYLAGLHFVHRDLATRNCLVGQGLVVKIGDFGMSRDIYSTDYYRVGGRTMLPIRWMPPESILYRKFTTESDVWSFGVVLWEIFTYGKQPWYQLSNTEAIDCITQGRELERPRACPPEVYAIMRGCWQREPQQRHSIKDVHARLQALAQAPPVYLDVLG

| Compound | percent degradation of TPM3-TRKA protein at 0.01 µM (TPM3-TRKA fusion protein; [1]) [%] | IC50 (KM12 cells; [2]) [nM] | percent degradation of TPM3-TRKA protein at 0.01 µM (TPM3-TRKA fusion protein; KM12, 16 h) [%] | IC50 (KM12 cells; KM12, 72 h) [nM] |
| --- | --- | --- | --- | --- |
| O=C1CCC(N2C(=O)c3ccc(NCCCCCCCC(=O)N4CCC(Nc5cccc(C(=O)Nc6cnn7ccc(N8CCC[C@@H]8c8cc(F)ccc8F)nc67)n5)CC4)cc3C2=O)C(=O)N1 (stereo partly drawn) [CPD-472, N-(5-((R)-2-(2,5-difluorophenyl)pyrrolidin-1-yl)pyrazolo[1,5-a]pyrimidin-3-yl)-6-((1-(8-((2-(2,6-dioxopiperidin-3-yl)-1,3-dioxoisoindolin-5-yl)amino)octanoyl)piperidin-4-yl)amino)picolinamide] | > 80 | 37 |  |  |
| O=C1CCC(N2C(=O)c3ccc(NCCOCCC(=O)N4CCC(Nc5cccc(C(=O)Nc6cnn7ccc(N8CCC[C@@H]8c8cc(F)ccc8F)nc67)n5)CC4)cc3C2=O)C(=O)N1 (stereo partly drawn) [CPD-473, N-(5-((R)-2-(2,5-difluorophenyl)pyrrolidin-1-yl)pyrazolo[1,5-a]pyrimidin-3-yl)-6-((1-(3-(2-((2-(2,6-dioxopiperidin-3-yl)-1,3-dioxoisoindolin-5-yl)amino)ethoxy)propanoyl)piperidin-4-yl)amino)picolinamide] | > 80 | 24 |  |  |
| O=C1CCC(N2C(=O)c3ccc(NCCOCCOCCC(=O)N4CCC(Nc5cccc(C(=O)Nc6cnn7ccc(N8CCC[C@@H]8c8cc(F)ccc8F)nc67)n5)CC4)cc3C2=O)C(=O)N1 (stereo partly drawn) [CPD-474, N-(5-((R)-2-(2,5-difluorophenyl)pyrrolidin-1-yl)pyrazolo[1,5-a]pyrimidin-3-yl)-6-((1-(3-(2-(2-((2-(2,6-dioxopiperidin-3-yl)-1,3-dioxoisoindolin-5-yl)amino)ethoxy)ethoxy)propanoyl)piperidin-4-yl)amino)picolinamide] | > 80 | 18 |  |  |
| O=C1CCC(N2C(=O)c3ccc(NCCOCCOCCOCCC(=O)N4CCC(Nc5cccc(C(=O)Nc6cnn7ccc(N8CCC[C@@H]8c8cc(F)ccc8F)nc67)n5)CC4)cc3C2=O)C(=O)N1 (stereo partly drawn) [CPD-475, N-(5-((R)-2-(2,5-difluorophenyl)pyrrolidin-1-yl)pyrazolo[1,5-a]pyrimidin-3-yl)-6-((1-(3-(2-(2-(2-((2-(2,6-dioxopiperidin-3-yl)-1,3-dioxoisoindolin-5-yl)amino)ethoxy)ethoxy)ethoxy)propanoyl)piperidin-4-yl)amino)picolinamide] | > 80 | 17 |  |  |
| O=C1CCC(N2C(=O)c3ccc(NCCOCCOCCOCCOCCC(=O)N4CCC(Nc5cccc(C(=O)Nc6cnn7ccc(N8CCC[C@@H]8c8cc(F)ccc8F)nc67)n5)CC4)cc3C2=O)C(=O)N1 (stereo partly drawn) [CPD-476, N-(5-((R)-2-(2,5-difluorophenyl)pyrrolidin-1-yl)pyrazolo[1,5-a]pyrimidin-3-yl)-6-((1-(1-((2-(2,6-dioxopiperidin-3-yl)-1,3-dioxoisoindolin-5-yl)amino)-3,6,9,12-tetraoxapentadecan-15-oyl)piperidin-4-yl)amino)picolinamide] | > 80 | 22.4 |  |  |
| O=C1CCC(N2C(=O)c3ccc(NCCOCCOCCOCCOCCOCCC(=O)N4CCC(Nc5cccc(C(=O)Nc6cnn7ccc(N8CCC[C@@H]8c8cc(F)ccc8F)nc67)n5)CC4)cc3C2=O)C(=O)N1 (stereo partly drawn) [CPD-477, N-(5-((R)-2-(2,5-difluorophenyl)pyrrolidin-1-yl)pyrazolo[1,5-a]pyrimidin-3-yl)-6-((1-(1-((2-(2,6-dioxopiperidin-3-yl)-1,3-dioxoisoindolin-5-yl)amino)-3,6,9,12,15-pentaoxaoctadecan-18-oyl)piperidin-4-yl)amino)picolinamide] | 50 to 80 | 51.7 |  |  |
| NC(=O)C1CCN(c2cc(CN3CCN(C(=O)CNc4cccc5c4C(=O)N(C4CCC(=O)NC4=O)C5=O)CC3)ccc2NC(=O)c2coc(N3CCOCC3)n2)CC1 (stereo not shown) [CPD-478, N-(2-(4-carbamoylpiperidin-1-yl)-4-((4-((2-(2,6-dioxopiperidin-3-yl)-1,3-dioxoisoindolin-4-yl)glycyl)piperazin-1-yl)methyl)phenyl)-2-morpholinooxazole-4-carboxamide] |  |  | > 80 | 28 |
| NC(=O)C1CCN(c2cc(CN3CCN(C(=O)CCNc4cccc5c4C(=O)N(C4CCC(=O)NC4=O)C5=O)CC3)ccc2NC(=O)c2coc(N3CCOCC3)n2)CC1 (stereo not shown) [CPD-479, N-(2-(4-carbamoylpiperidin-1-yl)-4-((4-(3-((2-(2,6-dioxopiperidin-3-yl)-1,3-dioxoisoindolin-4-yl)amino)propanoyl)piperazin-1-yl)methyl)phenyl)-2-morpholinooxazole-4-carboxamide] | 50 to 80 | 132 |  |  |
| NC(=O)C1CCN(c2cc(CN3CCN(C(=O)CCCNc4cccc5c4C(=O)N(C4CCC(=O)NC4=O)C5=O)CC3)ccc2NC(=O)c2coc(N3CCOCC3)n2)CC1 (stereo not shown) [CPD-480, N-(2-(4-carbamoylpiperidin-1-yl)-4-((4-(4-((2-(2,6-dioxopiperidin-3-yl)-1,3-dioxoisoindolin-4-yl)amino)butanoyl)piperazin-1-yl)methyl)phenyl)-2-morpholinooxazole-4-carboxamide] | > 80 | 22 |  |  |
| NC(=O)C1CCN(c2cc(CN3CCN(C(=O)CCCCNc4cccc5c4C(=O)N(C4CCC(=O)NC4=O)C5=O)CC3)ccc2NC(=O)c2coc(N3CCOCC3)n2)CC1 (stereo not shown) [CPD-481, N-(2-(4-carbamoylpiperidin-1-yl)-4-((4-(5-((2-(2,6-dioxopiperidin-3-yl)-1,3-dioxoisoindolin-4-yl)amino)pentanoyl)piperazin-1-yl)methyl)phenyl)-2-morpholinooxazole-4-carboxamide] | > 80 | 17 |  |  |
| NC(=O)C1CCN(c2cc(CN3CCN(C(=O)CCCCCNc4cccc5c4C(=O)N(C4CCC(=O)NC4=O)C5=O)CC3)ccc2NC(=O)c2coc(N3CCOCC3)n2)CC1 (stereo not shown) [CPD-482, N-(2-(4-carbamoylpiperidin-1-yl)-4-((4-(6-((2-(2,6-dioxopiperidin-3-yl)-1,3-dioxoisoindolin-4-yl)amino)hexanoyl)piperazin-1-yl)methyl)phenyl)-2-morpholinooxazole-4-carboxamide] | > 80 | 4.7 |  |  |
| NC(=O)C1CCN(c2cc(CN3CCN(C(=O)CCCCCCNc4cccc5c4C(=O)N(C4CCC(=O)NC4=O)C5=O)CC3)ccc2NC(=O)c2coc(N3CCOCC3)n2)CC1 (stereo not shown) [CPD-483, N-(2-(4-carbamoylpiperidin-1-yl)-4-((4-(7-((2-(2,6-dioxopiperidin-3-yl)-1,3-dioxoisoindolin-4-yl)amino)heptanoyl)piperazin-1-yl)methyl)phenyl)-2-morpholinooxazole-4-carboxamide] | > 80 | 5.5 |  |  |
| NC(=O)C1CCN(c2cc(CN3CCN(C(=O)CCCCCCCNc4cccc5c4C(=O)N(C4CCC(=O)NC4=O)C5=O)CC3)ccc2NC(=O)c2coc(N3CCOCC3)n2)CC1 (stereo not shown) [CPD-484, N-(2-(4-carbamoylpiperidin-1-yl)-4-((4-(8˜ ((2-(2,6-dioxopiperidin-3-yl)-1,3-dioxoisoindolin-4-yl)amino)octanoyl)piperazin-1-yl)methyl)phenyl)-2-morpholinooxazole-4-carboxamide] | > 80 | 42 |  |  |
| NC(=O)C1CCN(c2cc(CN3CCN(C(=O)CCOCCNc4cccc5c4C(=O)N(C4CCC(=O)NC4=O)C5=O)CC3)ccc2NC(=O)c2coc(N3CCOCC3)n2)CC1 (stereo not shown) [CPD-485, N-(2-(4-carbamoylpiperidin-1-yl)-4-((4-(3-(2-((2-(2,6-dioxopiperidin-3-yl)-1,3-dioxoisoindolin-4-yl)amino)ethoxy)propanoyl)piperazin-1-yl)methyl)phenyl)-2-morpholinooxazole-4-carboxamide] | 50 to 80 | 94 |  |  |
| NC(=O)C1CCN(c2cc(CN3CCN(C(=O)CCOCCOCCOCCNc4cccc5c4C(=O)N(C4CCC(=O)NC4=O)C5=O)CC3)ccc2NC(=O)c2coc(N3CCOCC3)n2)CC1 (stereo not shown) [CPD-487, N-(2-(4-carbamoylpiperidin-1-yl)-4-((4-(3-(2-(2-(2-((2-(2,6-dioxopiperidin-3-yl)-1,3-dioxoisoindolin-4-yl)amino)ethoxy)ethoxy)ethoxy)propanoyl)piperazin-1-yl)methyl)phenyl)-2-morpholinooxazole-4-carboxamide] | 50 to 80 | 121 |  |  |
| Cc1ncsc1-c1ccc(CNC(=O)[C@@H]2C[C@@H](O)CN2C(=O)[C@@H](NC(=O)CCCCCCCCC(=O)N2CCN(Cc3ccc(NC(=O)c4coc(N5CCOCC5)n4)c(N4CCC(C(N)=O)CC4)c3)CC2)C(C)(C)C)cc1 [CPD-493, N-(2-(4-carbamoylpiperidin-1-yl)-4-((4-(10-(((S)-1-((2S,4R)-4-hydroxy-2-((4-(4-methylthiazol-5-yl)benzyl)carbamoyl)pyrrolidin-1-yl)-3,3-dimethyl-1-oxobutan-2-yl)amino)-10-oxodecanoyl)piperazin-1-yl)methyl)phenyl)-2-morpholinooxazole-4-carboxamide] | 50 to 80 | 46 |  |  |
| COc1ccc(COc2ccc(Cn3c(N)nc4cc(-c5cnn(CC(=O)NCCNc6cccc7c6C(=O)N(C6CCC(=O)NC6=O)C7=O)c5)cnc43)cc2OC)cc1 (stereo not shown) [CPD-498, 2-(4-(2-amino-3-(3-methoxy-4-((4-methoxybenzyl)oxy)benzyl)-3H-imidazo[4,5-b]pyridin-6-yl)-1H-pyrazol-1-yl)-N-(2-((2-(2,6-dioxopiperidin-3-yl)-1,3-dioxoisoindolin-4-yl)amino)ethyl)acetamide] |  |  | 50 to 80 | 36.5 |
